# Tests used:
# [1] = Cytotoxicity against alphavbeta3-expressing human U-87 MG cells assessed as reduction in cell viability measured after 96 hrs by MTT assay; type: toxicity, cell-based; conditions: u-87mg atcc
# [2] = target: T1, Integrin alpha-V/beta-3 (Homo sapiens) (UniProt P05106+P06756); experiment: Antagonist activity at alphavbeta3 integrin-mediated human SK-MEL-2 cell adhesion to fibronectin at 50 uM incubated with cells for 4 hrs followed by incubation with fibronectin in humidified chamber for 1 hr followed by incubation for overnight at 37 degC by MTT assay; type: cell-based
# SK-MEL-2 = experiment: Cytotoxicity against alphavbeta3-expressing human SK-MEL-2 cells assessed as reduction in cell viability measured after 96 hrs by MTT assay; type: toxicity, cell-based; conditions: sk-mel-2, 96 h
# [3] = target: T1, Integrin alpha-V/beta-3 (Homo sapiens); experiment: Antagonist activity at alphavbeta3 integrin-mediated human SK-MEL-2 cell adhesion to fibronectin at 5 uM incubated with cells for 4 hrs followed by incubation with fibronectin in humidified chamber for 1 hr followed by incubation for overnight at 37 degC by MTT assay; type: cell-based; conditions: filed as antagonist
# [4] = Toxicity in C57BL/6 immunocompetent mouse assessed as body weight upto 300 mg/kg, ip administered daily for 4 days; type: organism-based; conditions: in vivo, 96 h, time 4 day
inhibition [3] [%],Structure (SMILES),Activity [1],inhibition [2],Activity (SK-MEL-2),Activity [4]
–,CNc1cccc(CC[C@H]2C[C@@H](C(=O)NC[C@H](NS(=O)(=O)c3ccccc3)C(=O)OC)C2)n1,Toxic,"Not determined; Greater Than 75% Inhibition In Initial Trial Experiment, Not Tested Further At This Concentration",Toxic,–
–,COC(=O)[C@H](CC(=O)N[C@H]1C[C@@H](CCc2ccc3c(n2)NCCC3)C1)NS(=O)(=O)c1ccccc1,Toxic,–,Toxic,–
–,COC(=O)[C@H](CC(=O)N[C@H]1C[C@@H](CCc2ccc3c(n2)NCCC3)C1)NS(=O)(=O)c1c(C)cc(C)cc1C,Toxic,–,Toxic,–
–,COC(=O)[C@H](CCNC(=O)[C@H]1C[C@@H](CCc2ccc3c(n2)NCCC3)C1)NS(=O)(=O)c1ccccc1,–,"Not determined; Greater Than 75% Inhibition In Initial Trial Experiment, Not Tested Further At This Concentration",Toxic,–
–,O=C(O)C[C@H](NS(=O)(=O)c1ccccc1)C(=O)N[C@H]1C[C@@H](CCc2ccc3c(n2)NCCC3)C1,–,"Not determined; Greater Than 75% Inhibition In Initial Trial Experiment, Not Tested Further At This Concentration",Toxic,–
–,COC(=O)[C@H](CC(=O)N[C@H]1C[C@@H](CCc2ccc3cccnc3n2)C1)NS(=O)(=O)c1c(C)cc(C)cc1C,Toxic,–,Toxic,–
–,COC(=O)[C@H](CCNC(=O)[C@H]1C[C@@H](Cc2ccc3cccnc3n2)C1)NS(=O)(=O)c1ccccc1,Toxic,–,Toxic,–
–,CC(C)(C)OC(=O)C[C@H](NS(=O)(=O)c1ccccc1)C(=O)N[C@H]1C[C@@H](CCc2ccc3cccnc3n2)C1,–,"Not determined; Greater Than 75% Inhibition In Initial Trial Experiment, Not Tested Further At This Concentration",Toxic,–
–,COC(=O)[C@H](CCNC(=O)[C@H]1C[C@@H](CCc2ccc3cccnc3n2)C1)NS(=O)(=O)c1c(C)cc(C)cc1C,Toxic,"Not determined; Greater Than 75% Inhibition In Initial Trial Experiment, Not Tested Further At This Concentration",Toxic,–
–,COC(=O)[C@H](CCNC(=O)[C@H]1C[C@@H](CCc2ccc3c(n2)NCCC3)C1)NS(=O)(=O)c1c(C)cc(C)cc1C,Toxic,"Not determined; Greater Than 75% Inhibition In Initial Trial Experiment, Not Tested Further At This Concentration",Toxic,–
59.5,COC(=O)[C@H](CNC(=O)[C@H]1C[C@@H](CCc2ccc3c(n2)NCCC3)C1)NS(=O)(=O)c1ccccc1,–,–,–,–
–,O=C1C[C@H](NS(=O)(=O)c2ccccc2)C(=O)N1[C@H]1C[C@@H](CCc2ccc3c(n2)NCCC3)C1,Toxic,–,Toxic,–
–,COC(=O)[C@H](CCNC(=O)[C@H]1C[C@@H](CCc2ccc3cccnc3n2)C1)NS(=O)(=O)c1ccccc1,–,"Not determined; Greater Than 75% Inhibition In Initial Trial Experiment, Not Tested Further At This Concentration",Toxic,–
–,CC(C)(C)OC(=O)C[C@H](NS(=O)(=O)c1ccccc1)C(=O)N[C@H]1C[C@@H](CCc2ccc3c(n2)NCCC3)C1,–,–,Toxic,–
–,COC(=O)[C@H](CCNC(=O)[C@H]1C[C@@H](Cc2ccc3c(n2)NCCC3)C1)NS(=O)(=O)c1c(C)cc(C)cc1C,Toxic,"Not determined; Greater Than 75% Inhibition In Initial Trial Experiment, Not Tested Further At This Concentration",Toxic,–
–,Cc1cc(C)c(S(=O)(=O)N[C@H]2CC(=O)N([C@H]3C[C@@H](CCc4ccc5cccnc5n4)C3)C2=O)c(C)c1,–,–,Toxic,–
–,CNc1cccc(CC[C@H]2C[C@@H](C(=O)NC[C@H](NS(=O)(=O)c3c(C)cc(C)cc3C)C(=O)OC)C2)n1,Toxic,–,Toxic,Non-toxic
–,COC(=O)[C@H](CCNC(=O)[C@H]1C[C@@H](Cc2ccc3c(n2)NCCC3)C1)NS(=O)(=O)c1ccccc1,Toxic,"Not determined; Greater Than 75% Inhibition In Initial Trial Experiment, Not Tested Further At This Concentration",Toxic,–
–,COC(=O)[C@H](CCNC(=O)[C@H]1C[C@@H](Cc2ccc3cccnc3n2)C1)NS(=O)(=O)c1c(C)cc(C)cc1C,Toxic,–,–,–
–,Cc1cc(C)c(S(=O)(=O)N[C@H]2CC(=O)N([C@H]3C[C@@H](CCc4ccc5c(n4)NCCC5)C3)C2=O)c(C)c1,–,–,Toxic,–
–,O=C(O)C[C@H](NS(=O)(=O)c1ccccc1)C(=O)N[C@H]1C[C@@H](CCc2ccc3cccnc3n2)C1,–,–,Toxic,–
–,COC(=O)[C@H](CC(=O)N[C@H]1C[C@@H](CCc2ccc3cccnc3n2)C1)NS(=O)(=O)c1ccccc1,Toxic,–,Toxic,–
–,O=C1C[C@H](NS(=O)(=O)c2ccccc2)C(=O)N1[C@H]1C[C@@H](CCc2ccc3cccnc3n2)C1,Toxic,–,Toxic,–

# Reference: ChEMBL document CHEMBL6074637, “Sidechain structure-activity relationships of cyclobutane-based small molecule αvβ3 antagonists” (RSC Med Chem, 2024)
